Assays:
HeLa cells = assay: Confocal imaging and colocalization in live HeLa cells; format: cell-based; details: LNPs, no stimulation
Procedure: FIGS. 9A-9E: confocal imaging of lipid environments targeted by ONOO^− in live HeLa cells. Cells were seeded into glass microscope dishes, incubated with LNPs (50 μM) and stained with organelle trackers and/or actin dye prior to imaging. LNPs obtained from a 47.5:47.5:5.0 molar ratio of DOTMA, DOPE, and DPPC-TC-ONOO^−. FIG. 9A: cells treated with LNPs, stimulated with IFN-γ/LPS/PMA. Time coarse images acquired upon PMA treatment. FIG. 9B: cells treated with LNPs and 1400 W. FIG. 9C: cells treated with LNPs, then with 1400 W and IFN-γ/LPS/PMA. FIGS. 9D-9E: quantitative colocalization study of cells treated with LNPs and stimulated with IFN-γ/LPS/PMA. Pearson's correlation coefficient (PCC) was calculated for quantitative assessment. Organelle trackers: ER-Tracker™, MitoTracker™, CellLight™ Golgi-RFP, LysoTracker™. Cell cytoskeleton was assessed with CellMask™ Deep Red Actin Tracking Stain. DPPC-TC channel: 405/475 nm. Scale bars=20 μm (FIGS. 9A-9D) or 5 μm (FIG. 9E). With the utility of DPPC-TC-ONOO^− proven in synthetic protocell membranes, incorporation into live HeLa and RAW 264.7 cells was sought, which are relevant to redox-induced stress and have well-recognized pathways for RNS and ROS production. Lipid nanoparticles (LNPs) (˜100 nm in diameter) was used to deliver DPPC-TC-ONOO− into cells. This method circumvented the limited solubility of DPPC-TC-ONOO− due to the relatively hydrophobic butanone-coumarin motif. LNPs were obtained via sonication from 1,2-di-O-octadecenyl-3-trimethylammonium propane (DOTMA), 1,2-dioleoyl-sn-glycero-3-phosphoethanolamine (DOPE), and DPPC-TC-ONOO− (47.5:47.5:5.0 molar ratio), which were hydrated with a 300 mM sucrose solution. DOTMA and DOPE were chosen as the carrier lipids due to their cationic/zwitterionic natures, which has been postulated to enhance uptake through the cell membrane. The impact of different LNP compositions and incubation times on the cellular incorporation of DPPC-TC-ONOO^− was assessed. […] Specifically, LNPs containing greater than 10 mol % DPPC-TC-ONOO− were considerably more heterogenous in size (up to […] observed, in contrast to ˜100 nm) and nonuniform in vesicle lamellarity. Those with less than 4 mol % DPPC-TC-ONOO− led to insufficient fluorescence signal. To balance these counteracting factors, 5 mol % DPPC-TC-ONOO− was used, with 47.5 mol % DOTMA and DOPE, each. In these initial assays, cells were incubated with LNPs for up to 15 hours to complete the uptake and intracellular localization of DPPC-TC-ONOO−. Shorter incubation times (3-to-5 hours) led to its uptake but not subcellular localization. […] However, high serum concentration in DMEM caused interference between LNPs and serum-protein, resulting in aggregate formation as observed by microscopy. To overcome this obstacle, LNPs (50 μM) were used in a mixture of 2/3 volumetric ratio of sucrose solution and Opti-MEM™, a reduced serum medium known to increase the efficiency of lipofection. […] For a physiologically relevant stress model, the standard stimulation condition involving IFN-γ/LPS/PMA was employed. Treatment of cells with IFN-γ/LPS leads to the endogenous production of nitric oxide and PMA provokes increased levels of superoxide. These two reactive species combine to form peroxynitrite, as described elsewhere herein. […] The intracellular redox selectivity of DPPC-TC-ONOO^− was also assessed using N-(3-(aminomethyl)benzyl)-acetamidine, known as 1400 W, which inhibits the production of NO· by irreversibly binding to iNOS. […] To determine whether DPPC-TC-ONOO^− localizes and functions at a specific subcellular compartment in HeLa, a comprehensive colocalization study was performed with dyes specific for lipid-rich and membrane-enclosed organelles, including the ER, mitochondrion, Golgi apparatus, and lysosome (FIGS. 9D-9E). In addition, actin stain was used to gain a visual insight into the cytoskeletal structure of the whole cell. […]

HeLa and RAW 264.7 cells = assay: MTT cell viability assay; format: cell-based; details: 8-250 μM, 24-hour period
Procedure: With a feasible liposome preparation and treatment protocol established for live cell imaging, attention was turned to assessing the cytocompatibility of the LNPs, with or without DPPC-TC-ONOO^−, DPPC-TC, and the oxa-spiro[4,5] decenone 6a. A standard 3-(4,5-dimethylthiazol-2-yl)-2,5-diphenyl tetrazolium bromide (MTT) cell viability assay in HeLa and RAW 264.7 cells treated with these molecules (8-250 μM) over a 24-hour period. The dose-response curves provided high IC50 values for each compound: DPPC-TC-ONOO− (≥100 μM), DPPC-TC (≥50 μM), and 6 (≥70 μM).

[1] = Photophysical characterization of probes and uncaged forms (relative fluorescence quantum yield, extinction coefficient, brightness); format: physicochemical; details: for Brightness: in M⁻¹·cm⁻¹ (unit assumed)
Procedure: The pKa of TEG-TC was determined to be 7.1±0.1 using UV-Vis spectrophotometric measurements. Under the confocal imaging conditions (pH 7.5-8.5 with cell-free assays, pH 7.4 with cells), a substantial population of the 7-hydroxycoumarin should exist in its aryloxide form. The change in coumarin fluorogenicity was assessed upon uncaging the probes from the oxobutylphenyl carbonate by measuring the relative fluorescence quantum yield (ΦFrel) values (Table 2). Coumarin 343 was used as a standard, which has an absolute fluorescence quantum yield ([…]) of 0.63 in ethanol. The ΦFrel values of TEG-TC-ONOO^− (entry 1) and DPPC-TC-ONOO^− (entry 3) were measured as 0.08 and 0.09, respectively. […] The ΦFrel values for TEG-TC (entry 2) and DPPC-TC (entry 4), which were synthesized independently, were measured as 0.66 and 0.64, respectively.
Next, the impact of caging and uncaging of the coumarin or fluorescein moieties on their fluorogenicity was assessed by measuring the relative fluorescence quantum yield (ΦFrel) values (Table 3). Coumarin 343 was used as the standard for measuring ΦFrel of the triazole-coumarin compounds (TEG-TC-H2S, TEG-TC, DPPC-TC-H2S, and DPPC-TC) whereas fluorescein for the triazole-fluorescein compounds (TEG-TF-H2O2, TEG-TF, and DPPC-TF-H2O2, and DPPC-TF). Relative to coumarin 343, whose absolute fluorescence quantum yield (ΦF) is 0.63 in ethanol, ΦFrels of the H2S probes TEG-TC-H2S (entry 1) and DPPC-TC-H2S (entry 3) were determined to be 0.07 and 0.03, respectively.
The pKa of TEG-TC was previously found to be to be 7.1±0.1 using UV-Vis spectrophotometric measurements. Under the fluorescence activation assay conditions that are employed here (Tris 50 mM, pH 7.5), a substantial population of the coumarin moiety is expected to be in its aryloxide anion form. Relative to fluorescein, whose ΦF is 0.79 in ethanol, ΦFrel values of the H2O2 probes TEG-TF-H2O2 (entry 5) and DPPC-TF-H2O2 (entry 7) were determined to be 0.04 and 0.02, respectively.

[2] = Fluorescence activation and LoD of TEG-TC-H2S with H2S in Tris buffer
Procedure: FIGS. 13A-13D: specificity (FIGS. 13A-13B) and limit of detection (LoD) (FIGS. 13C-13D) of TEG-TC-H2S and TEG-TF-H2O2. LoD measurements for the probes TEG-TC-H2S (390/475 nm) and TEG-TF-H2O2 (485/525 nm) were performed in Tris buffer (50 mM, pH 7.5). Error bars represent the standard deviation; n=3. Single-tailed Student's t test: *, P<0.05; **, P<0.01; ***, P<0.001; ****, P<0.0001.
(§1) The redox-specificities of the non-amphiphilic probes, TEG-TC-H2S or TEG-TF-H2O2, were assessed by subjecting them to various RSS or ROS (FIGS. 13A-13B). Change in fluorescence intensity following excitation of each sample containing the respective probe was measured over 120 minutes of incubation and presented based on the signal-to-background ratio F/F0, where F and F0 are defined as the fluorescence with and without the redox species. The F/F0 of the untreated samples were set to 1 for comparisons. […] Samples containing TEG-TF-H2O2 and treated with 100 μM H2O2 presented a steady fluorescence enhancement within 2 hours, resulting in 4.4-fold higher fluorescence than those of the untreated samples (FIG. 13B).
(§2) The specificity of TEG-TC-H2S toward H2S was evaluated by comparing its reactivity against different RSS, cysteine (Cys), glutathione (GSH), sulfite (SO3^2−), and thiosulfate (S2O3^2−). At 1 mM initial concentration and a total incubation time of 2 hours, these sulfur species induced an increase in coumarin fluorescence by less than 25% compared to the untreated sample (FIG. 13A). […] The specificity of TEG-TF-H2O2 toward H2O2 was also assessed, by incubating the samples containing TEG-TF-H2O2 with 100 μM either hydroxyl radical (·OH), nitric oxide (NO), or superoxide radical (O2·^−) for 2 hours. Among these three reactive oxygen species, ·OH induced the highest fluorescence increase (2.2-fold), which was lower than that for H2O2 (4.4-fold). The relatively low yet observable reactivity of ·OH may have been due, in large part, to the residual unreacted H2O2 used for generating ·OH. […]

[3] = Specificity of TEG-TC-H2S against other RSS
Procedure: as §1
as §2, with “hours.” for “hours. Among these three reactive oxygen species, ·OH induced the highest fluorescence increase (2.2-fold), which was lower than that for H2O2 (4.4-fold). The relatively low yet observable reactivity of ·OH may have been due, in large part, to the residual unreacted H2O2 used for generating ·OH.”

[4] = Table 3, brightness compared to that of DPPC-TC-H2S
[5] = Table 3, brightness compared to that of DPPC-TF-H2O2

Molecule	fluorescence at 405/475 nm (HeLa cells)	IC50 (HeLa and RAW 264.7 cells) [µM]	Emmax [1] [nm]	Exmax [1] [nm]	Ext. Coeff. [1] [M⁻¹ cm⁻¹]	enhanced brightness, uncaging product vs caged probe [1] [fold]	Relative Brightness ([1]; Table 2, DPPC-TC-ONOO^− = 1.0)	Relative Brightness [1, 4]	Brightness [1]	Quantum Yield (relative fluorescence quantum yield ΦFrel) ([1]; standard coumarin 343)	Relative Brightness [1, 5]	Quantum Yield (relative fluorescence quantum yield ΦFrel) ([1]; standard fluorescein)	fluorescence compared to the sample untreated ([2]; 1 mM H2S, 2 hours of incubation, Tris pH 7.5) [fold]	increase in fluorescence intensity ([2]; H2S 1 mM, 2 hours) [%]	LoD ([2]; minimum H2S concentration at which F is statistically higher than F0, 390/475 nm, Tris 50 mM pH 7.5) [µM]	fluorescence activation in the presence of H2S compared to the other RSS [3] [fold]	increase in coumarin fluorescence compared to the untreated sample ([3]; Cys, GSH, SO3^2−, S2O3^2− at 1 mM, 2 hours)
CCCCCCCCCCCCCCCC(=O)OCC(COP(=O)([O-])OCC[N+](C)(C)Cc1cn(-c2cc3ccc(O)cc3oc2=O)nn1)OC(=O)CCCCCCCCCCCCCCC (racemic) [DPPC-TC]	strong coumarin fluorescence	≥ 50	472.0	398.0	13749	120	35.1	122.2	8799	0.64							
CCCCCCCCCCCCCCCC(=O)OCC(COP(=O)([O-])OCC[N+](C)(C)Cc1cn(-c2ccc3c(c2)C(=O)OC32c3ccc(O)cc3Oc3cc(O)ccc32)nn1)OC(=O)CCCCCCCCCCCCCCC (racemic) [DPPC-TF]			523.6	498.1	28990				18264		85.3	0.63					
[N-]=[N+]=Nc1ccc(COc2ccc3cc(-n4cc(COCCOCCOCCO)nn4)c(=O)oc3c2)cc1 [TEG-TC-H2S]			475.5	392.3	5347			5.2	374	0.07			2.2	120	100	≥ 5	less than 25%
O=C1OC2(c3ccc(O)cc3Oc3cc(O)ccc32)c2ccc(-n3cc(COCCOCCOCCO)nn3)cc21 [TEG-TF]			522.6	494.3	35982				26267		122.7	0.73					
oxa-spiro[4,5] decenone [Compound 6]		≥ 70															

Reference: patent publication US20240385182A1, “MASKED FLUOROGENIC LIPID COMPOUNDS, LIPID PARTICLES COMPRISING THE SAME, AND METHODS OF USE THEREOF” (Rutgers, The State University of New Jersey, priority 2023, published 2024)
